Source: EP3722296B1, “DIHYDRONAPHTHYRIDINES AND RELATED COMPOUNDS USEFUL AS KINASE INHIBITORS FOR THE TREATMENT OF PROLIFERATIVE DISEASES” (Deciphera Pharmaceuticals, LLC, priority 2012, dated 2013)
pIC50: −log10 of the molar value.

Tests used:
[1] = target: T1, c-KIT D816V kinase (Homo sapiens, UniProt P10721, D816V); test: c-KIT D816V kinase Assay; format: biochemical; details: enzymatic assay, ATP 200 uM
T1 construct: residues T544-V976 with N-terminal GST fusion; purchased deCODE Biostructures
T1 sequence (P10721 544-976 D816V): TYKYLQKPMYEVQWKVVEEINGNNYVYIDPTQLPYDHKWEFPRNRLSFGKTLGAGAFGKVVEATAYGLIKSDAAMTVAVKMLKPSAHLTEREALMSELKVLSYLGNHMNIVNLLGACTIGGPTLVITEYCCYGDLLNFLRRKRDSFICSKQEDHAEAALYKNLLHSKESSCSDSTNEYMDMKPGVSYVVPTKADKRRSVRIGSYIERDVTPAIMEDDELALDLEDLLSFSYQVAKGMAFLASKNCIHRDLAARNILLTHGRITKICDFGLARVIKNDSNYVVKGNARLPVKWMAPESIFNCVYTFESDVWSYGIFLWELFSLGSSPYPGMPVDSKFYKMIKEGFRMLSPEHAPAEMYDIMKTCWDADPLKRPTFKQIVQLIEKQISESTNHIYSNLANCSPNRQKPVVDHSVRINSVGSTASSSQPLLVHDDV
Procedure, shortened: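 Coupled assay in which NADH oxidation was tracked as decreasing absorbance at 340 nm, continuously for 5 hours at 30 °C after adding serially diluted compound. Enzyme: cKit residues T544-V976 with N-terminal tag, GST fusion and TEV cleavage site.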

[2] = target: T2, c-KIT T670I kinase (Homo sapiens, UniProt P10721, T670I); test: c-KIT T670I kinase assay; format: biochemical; details: enzymatic assay
T2 construct: The construct contains residues T544-V976 of cKit; GST (N); TEV cleavage site (internal); purchased deCODE Biostructures
T2 sequence (P10721 544-976 T670I): as the sequence (P10721 544-976 D816V) above, with T127I, V273D counted along it
Procedure, shortened: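 Coupled spectrophotometric assay following NADH oxidation as absorbance decrease at 340 nm, monitored continuously for 5 h at 30 °C after adding serially diluted compound. Enzyme is a cKit construct with N-terminal tag, GST fusion and TEV site, carrying the T670I mutation.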

[3] = target: T3, c-KIT VVDV kinase (Homo sapiens, UniProt P10721, D816V/DEL559-560); test: cKIT-VVDV kinase Assay; format: biochemical; details: enzymatic assay; V559+V560 deletions and D816V mutation
T3 construct: This construct contains residues T544-V976 of cKit; GST (N); TEV cleavage site (internal); purchased deCODE Biostructures
T3 sequence (P10721 with tags, fused parts or gaps DEL559-560/D816V): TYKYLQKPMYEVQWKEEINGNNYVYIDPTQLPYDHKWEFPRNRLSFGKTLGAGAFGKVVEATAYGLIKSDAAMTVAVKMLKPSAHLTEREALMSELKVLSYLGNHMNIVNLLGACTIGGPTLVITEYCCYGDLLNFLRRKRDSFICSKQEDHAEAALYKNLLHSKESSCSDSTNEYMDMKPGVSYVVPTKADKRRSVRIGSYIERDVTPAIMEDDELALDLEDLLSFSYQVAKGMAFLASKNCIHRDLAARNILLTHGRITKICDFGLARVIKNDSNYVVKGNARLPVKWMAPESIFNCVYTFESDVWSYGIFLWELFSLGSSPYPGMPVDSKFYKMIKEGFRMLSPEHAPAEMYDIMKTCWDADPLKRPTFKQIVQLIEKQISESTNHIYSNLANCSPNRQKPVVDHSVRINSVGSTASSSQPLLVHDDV
Procedure: In this assay, the oxidation of NADH (measured by decrease in absorbance at 340 nm) was continuously monitored spectrophotometrically. […] The inhibition reaction was started by mixing serial diluted test compound with the above reaction mixture. The absorption at 340 nm was monitored continuously for 5 hours at 30 °C on Synergy 2 plate reader (BioTech). […] The protein construct was prepared by deCODE Biostructures using procedures known in the art. […] This construct is identical to Seq ID no.

[4] = target: c-KIT kinase (Homo sapiens, UniProt P10721); test: c-KIT kinase Assay; format: biochemical; design: cKIT residues T544-V976; GST (N); TEV cleavage site (internal); purchased deCODE Biostructures; details: enzymatic assay, ATP 200 µM; read-out: KIT (wt) IC50
Sequence of c-KIT kinase (P10721 544-976): as the sequence (P10721 544-976 D816V) above, with V273D counted along it
Procedure, shortened: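 Activity of wild-type human c-KIT kinase was followed as NADH oxidation, read as falling absorbance at 340 nm on a Synergy 2 plate reader (BioTeK) for 2 hours at 30 °C. Rates from the 0 to 1 h window were compared with an uninhibited control to give percent inhibition. IC50 values were fitted in GraphPad Prism across a range of inhibitor concentrations.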

[5] = target: T4, c-KIT D816H kinase (Homo sapiens, UniProt P10721, D816H); test: c-KIT D816H Kinase Assay; format: biochemical; details: enzymatic assay, ATP 200 µM
T4 construct: The construct contains residues T544-V976 of cKit; GST (N); TEV cleavage site (internal); purchased deCODE Biostructures
T4 sequence (P10721 544-976 D816H): as the sequence (P10721 544-976 D816V) above, with V273H counted along it
Procedure, shortened: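 Coupled spectrophotometric assay following NADH oxidation as absorbance decrease at 340 nm, monitored continuously for 6 hours at 30 °C after adding serially diluted compound. Enzyme: mutant cKit construct with N-terminal tag, GST fusion and TEV cleavage site.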

[6] = target: T5, c-KIT V654A kinase (Homo sapiens, UniProt P10721, V654A); test: c-KIT V654A Kinase Assay; format: biochemical; details: enzymatic assay, ATP 200 µM
T5 construct: residues T544-V976 with N-terminal GST fusion; purchased deCODE Biostructures
T5 sequence (P10721 544-976 V654A): as the sequence (P10721 544-976 D816V) above, with V111A, V273D counted along it
Procedure, shortened: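 Construct: cKIT residues T544–V976 with N-terminal tag, GST fusion and TEV site. Reaction started by adding serially diluted compound to the enzyme mixture; NADH oxidation, coupled to kinase turnover, followed as the decrease in A340 for 6 h at 30 °C.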

[7] = tested on: Phospho-KIT (Tyr719); test: GIST430 KIT Western Blot; format: cell-based; details: GIST430 cells, 4 hours, serum-free medium; read-out: pKIT suppression by western blot analysi GIST430
Procedure: (§1) GIST48, GIST430, and GIST882 cells were obtained from J. Fletcher (Brigham and Women's Hospital, Boston, MA). GIST T1 cells were obtained from B. Rubin (Cleveland Clinic, Cleveland, OH) and Professor Takahiro Taguchi (Kochi Medical School, Nankoku, Kochi, Japan). […] GIST430 cells were grown in Ham's F10 medium supplemented with 15% characterized fetal bovine serum (Invitrogen, Carlsbad, CA), 30 mg/L bovine pituitary extract (BD Biosciences, San Jose, CA), 0.5% Mito+ serum extender (BD Biosciences, San Jose, CA), 1 unit/mL penicillin G, 1 µg/ml streptomycin, and 0.29 mg/mL L-glutamine at 37 °C, 5%CO2, 95% humidity. GIST T1 cells were grown in DMEM medium supplemented with 10% characterized fetal bovine serum (Invitrogen, Carlsbad, CA), 1 unit/mL penicillin G, 1 µg/ml streptomycin, and 0.29 mg/mL L-glutamine at 37 °C, 5% CO2, and 95% humidity.
(§2) One hundred fifty thousand cells were added per well in a 24-well tissue-culture treated plate. […] Medium was aspirated, cells were washed with PBS, and serum-free Ham's F10 medium was added. […] Cells were washed with PBS, then lysed. Cell lysates were separated by SDS-PAGE and transferred to PVDF. Phospho-KIT (Tyr719) was detected using an antibody from Cell Signaling Technology (Beverly, MA), ECL Plus detection reagent (GE Healthcare, Piscataway, NJ) and a Molecular Devices Storm 840 phosphorimager in fluorescence mode. Blots were stripped and probed for total KIT using an antibody from Santa Cruz Biotech (Santa Cruz, CA). IC50 values were calculated using Prism software (Graphpad, San Diego, CA).

[8] = tested on: Phospho-KIT (Tyr719); test: GIST48 KIT Western Blot; format: cell-based; details: GIST48 cells, 4 hours, serum-free medium; read-out: pKIT suppression by western blot analysi GIST48
Procedure: as §1
as §2, with “Two” for “One”, “RPMI1640” for “Ham's F10”

[9] = target: T6, Phospho-KIT (Tyr719) (Homo sapiens, UniProt P10721, K642E); test: GIST882 KIT Western Blot; format: cell-based; details: GIST882 cells, 4 hours, serum-free medium; read-out: pKIT suppression by western blot analysi GIST 882
T6 construct: endogenous in cells; host or cells: GIST882
T6 sequence (P10721 26-976 K642E): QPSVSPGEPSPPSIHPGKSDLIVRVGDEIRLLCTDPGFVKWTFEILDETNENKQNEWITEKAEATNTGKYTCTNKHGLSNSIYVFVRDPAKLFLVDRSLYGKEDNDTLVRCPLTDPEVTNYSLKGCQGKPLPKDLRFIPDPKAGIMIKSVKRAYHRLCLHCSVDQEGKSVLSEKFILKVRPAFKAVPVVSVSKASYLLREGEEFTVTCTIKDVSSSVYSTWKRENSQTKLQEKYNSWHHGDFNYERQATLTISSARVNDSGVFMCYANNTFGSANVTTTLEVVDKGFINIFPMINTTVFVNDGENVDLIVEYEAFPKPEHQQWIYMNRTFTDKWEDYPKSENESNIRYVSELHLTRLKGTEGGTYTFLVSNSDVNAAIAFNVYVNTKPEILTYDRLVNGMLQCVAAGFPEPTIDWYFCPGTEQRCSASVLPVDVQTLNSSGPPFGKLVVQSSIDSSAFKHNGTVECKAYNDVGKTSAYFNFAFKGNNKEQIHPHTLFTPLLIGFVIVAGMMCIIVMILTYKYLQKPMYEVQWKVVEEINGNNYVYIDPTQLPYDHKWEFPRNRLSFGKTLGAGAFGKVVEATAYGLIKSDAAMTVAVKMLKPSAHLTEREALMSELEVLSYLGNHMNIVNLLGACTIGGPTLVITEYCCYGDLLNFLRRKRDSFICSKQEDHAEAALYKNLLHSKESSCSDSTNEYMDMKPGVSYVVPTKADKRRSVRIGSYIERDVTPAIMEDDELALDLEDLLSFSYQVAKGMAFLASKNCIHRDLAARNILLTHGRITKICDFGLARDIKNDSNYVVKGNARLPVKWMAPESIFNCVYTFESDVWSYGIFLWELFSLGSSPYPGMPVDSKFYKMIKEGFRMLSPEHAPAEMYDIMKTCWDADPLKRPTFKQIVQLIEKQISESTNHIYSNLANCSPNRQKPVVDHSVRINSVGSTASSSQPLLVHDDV
Procedure: as §1
as §2, with “Two” for “One”, “RPMI1640” for “Ham's F10”

| pIC50 [1] | pIC50 [2] | pIC50 [3] | pIC50 [4] | pIC50 [5] | pIC50 [6] | pIC50 [7] | pIC50 [8] | pIC50 [9] | Structure (SMILES) |
| --- | --- | --- | --- | --- | --- | --- | --- | --- | --- |
| 6.00 to 7.00 | > 8.00 | 6.00 to 7.00 | – | – | – | – | – | – | CCn1c(=O)c(-c2ccc(F)c(NC(=O)Nc3cccc4ccccc34)c2)cc2cnc(NC)cc21 [Example 2, 1-(5-(1-ethyl-7-(methylamino)-2-oxo-1,2-dihydro-1,6-naphthyridin-3-yl)-2-fluorophenyl)-3-(naphthalen-1-yl)urea] |
| 6.00 to 7.00 | – | 6.00 to 7.00 | – | – | – | – | – | – | CNc1cc2c(cn1)cc(-c1ccc(F)c(NC(=O)Nc3ccccc3)c1)c(=O)n2C(C)C [Example 5, 1-(2-fluoro-5-(1-isopropyl-7-(methylamino)-2-oxo-1,2-dihydro-1,6-naphthyridin-3-yl)phenyl)-3-phenylurea] |
| 7.00 to 8.00 | 7.00 to 8.00 | 7.00 to 8.00 | – | – | – | – | – | – | CNc1cc2c(cn1)cc(-c1cc(NC(=O)Nc3ccccc3)c(F)cc1Cl)c(=O)n2C [Example 7, 1-(4-chloro-2-fluoro-5-(1-methyl-7-(methylamino)-2-oxo-1,2-dihydro-1,6-naphthyridin-3-yl)phenyl)-3-phenylurea] |
| 7.00 to 8.00 | 7.00 to 8.00 | 6.00 to 7.00 | – | – | – | – | – | – | CNc1cc2c(cn1)cc(-c1cc(NC(=O)Nc3cccc4ccccc34)c(F)cc1Cl)c(=O)n2C [Example 8, 1-(4-chloro-2-fluoro-5-(1-methyl-7-(methylamino)-2-oxo-1,2-dihydro-1,6-naphthyridin-3-yl)phenyl)-3-(naphthalen-1-yl)urea] |
| 7.00 to 8.00 | 7.00 to 8.00 | 7.00 to 8.00 | > 8.00 | – | – | – | – | – | CNc1cc2c(cn1)cc(-c1cc(NC(=O)Nc3cccc(C#N)c3)c(F)cc1Cl)c(=O)n2C [Example 9, 1-(4-chloro-2-fluoro-5-(1-methyl-7-(methylamino)-2-oxo-1,2-dihydro-1,6-naphthyridin-3-yl)phenyl)-3-(3-cyanophenyl)urea] |
| 7.00 to 8.00 | 7.00 to 8.00 | 7.00 to 8.00 | – | – | – | – | – | – | CNc1cc2c(cn1)cc(-c1cc(NC(=O)Nc3cccc(F)c3F)c(F)cc1Cl)c(=O)n2C [Example 10, 1-(4-chloro-2-fluoro-5-(1-methyl-7-(methylamino)-2-oxo-1,2-dihydro-1,6-naphthyridin-3-yl)phenyl)-3-(2,3-difluorophenyl)urea] |
| < 6.00 | – | 6.00 to 7.00 | – | – | – | – | – | – | CCn1c(=O)c(-c2ccc(F)c(NC(=O)Nc3cccc(C#N)c3)c2)cc2cnc(NC)cc21 [Example 12, 1-(3-cyanophenyl)-3-(5-(1-ethyl-7-(methylamino)-2-oxo-1,2-dihydro-1,6-naphthyridin-3-yl)-2-fluorophenyl)urea] |
| 7.00 to 8.00 | 7.00 to 8.00 | > 8.00 | – | – | – | – | – | – | CNc1cc2c(cn1)cc(-c1cc(NC(=O)Nc3csc4ccccc34)c(F)cc1C)c(=O)n2C [Example 13, 1-(benzo[b]thiophen-3-yl)-3-(2-fluoro-4-methyl-5-(1-methyl-7-(methylamino)-2-oxo-1,2-dihydro-1,6-naphthyridin-3-yl)phenyl)urea] |
| 6.00 to 7.00 | 7.00 to 8.00 | 7.00 to 8.00 | > 8.00 | – | – | – | – | – | CCn1c(=O)c(-c2cc(NC(=O)Nc3cccc(C#N)c3)c(F)cc2F)cc2cnc(NC)cc21 [Example 18, 1-(3-cyanophenyl)-3-(5-(1-ethyl-7-(methylamino)-2-oxo-1,2-dihydro-1,6-naphthyridin-3-yl)-2,4-difluorophenyl)urea] |
| > 8.00 | – | 7.00 to 8.00 | > 8.00 | – | – | – | – | – | CCn1c(=O)c(-c2cc(NC(=O)Nc3csc4ccccc34)c(F)cc2F)cc2cnc(NC)cc21 [Example 19, 1-(benzo[b]thiophen-3-yl)-3-(5-(1-ethyl-7-(methylamino)-2-oxo-1,2-dihydro-1,6-naphthyridin-3-yl)-2,4-difluorophenyl)urea] |
| < 6.00 | – | < 6.00 | 7.00 to 8.00 | – | – | – | – | – | CCn1c(=O)c(-c2c(Cl)ccc(NC(=O)Nc3ccccc3)c2F)cc2cnc(NC)cc21 [Example 26, 1-(4-chloro-3-(1-ethyl-7-(methylamino)-2-oxo-1,2-dihydro-1,6-naphthyridin-3-yl)-2-fluorophenyl)-3-phenylurea] |
| 7.00 to 8.00 | 6.00 to 7.00 | 6.00 to 7.00 | > 8.00 | 7.00 to 8.00 | > 8.00 | 7.00 to 8.00 | – | – | CCn1c(=O)c(-c2cc(NC(=O)Nc3ccccc3)ccc2Cl)cc2cnc(NC)cc21 [Example 33, 1-(4-chloro-3-(1-ethyl-7-(methylamino)-2-oxo-1,2-dihydro-1,6-naphthyridin-3-yl)phenyl)-3-phenylurea] |
| 7.00 to 8.00 | 6.00 to 7.00 | 7.00 to 8.00 | > 8.00 | 7.00 to 8.00 | 7.00 to 8.00 | 6.00 to 7.00 | 6.00 to 7.00 | – | CCn1c(=O)c(-c2cc(NC(=O)Nc3ccccc3)c(F)cc2F)cc2cnc(NCCOC)cc21 [Example 36, 1-(5-(1-ethyl-7-(2-methoxyethylamino)-2-oxo-1,2-dihydro-1,6-naphthyridin-3-yl)-2,4-difluorophenyl)-3-phenylurea] |
| 7.00 to 8.00 | 7.00 to 8.00 | < 6.00 | > 8.00 | 7.00 to 8.00 | 7.00 to 8.00 | – | – | – | CCn1c(=O)c(-c2cc(NC(=O)Nc3cccc(F)c3)c(F)cc2C)cc2cnc(NC3CC3)cc21 [Example 45, 1-(5-(7-(cyclopropylamino)-1-ethyl-2-oxo-1,2-dihydro-1,6-naphthyridin-3-yl)-2-fluoro-4-methylphenyl)-3-(3-fluorophenyl)urea] |
| 7.00 to 8.00 | 7.00 to 8.00 | – | > 8.00 | 7.00 to 8.00 | 6.00 to 7.00 | 7.00 to 8.00 | 7.00 to 8.00 | 7.00 to 8.00 | CCn1c(=O)c(-c2cc(NC(=O)Nc3ccccc3)c(F)cc2Cl)cc2cnc(NC(=O)N3CC[C@@H](N(C)C)C3)cc21 [Example 84, (R)-N-(3-(2-chloro-4-fluoro-5-(3-phenylureido)phenyl)-1-ethyl-2-oxo-1,2-dihydro-1,6-naphthyridin-7-yl)-3-(dimethylamino)pyrrolidine-1-carboxamide] |
